Like-named read-outs stand apart in the source and are kept apart here.
What was measured:
P. aeruginosa AUMC-Pa-3 = assay: microbe, parasite or virus in culture
Outline: (§1)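 CLSI broth dilution; MHB; ~1 × 10^6 CFU/mL suspension mixed equal volume with drug; 37 °C for 18 h; visual read; triplicate. Broth sometimes supplemented with PG, PE, PC, CL, LPS, MgCl2, CaCl2 or PAβN.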

P. aeruginosa AUMC-Pa-4 = assay: microbe, parasite or virus in culture
Outline: as §1

P. aeruginosa AUMC-Pa-5 = assay: microbe, parasite or virus in culture; details: strain AUMC-Pa-5
Outline: as §1

P. aeruginosa AUMC-Pa-6 = assay: microbe, parasite or virus in culture; details: strain AUMC-Pa-6
Outline: as §1

P. aeruginosa PAO1 = assay: microbe, parasite or virus in culture; details: PAO1
Outline: as §1

P. aeruginosa ATCC27853 = assay: microbe, parasite or virus in culture; design: MICa: MIC of the antibiotic / MICac: MIC of the antibiotic in the combination: unit not given beside the values
Outline: as §1

P. aeruginosa NR-31040 = assay: microbe, parasite or virus in culture; design: MICa: MIC of the antibiotic / MICac: MIC of the antibiotic in the combination: unit not given beside the values
Outline: as §1

P. aeruginosa NR-31041 = assay: microbe, parasite or virus in culture; design: MICa: MIC of the antibiotic / MICac: MIC of the antibiotic in the combination: unit not given beside the values
Outline: as §1

P. aeruginosa PA14 = assay: microbe, parasite or virus in culture; design: MICa: MIC of the antibiotic / MICac: MIC of the antibiotic in the combination: unit not given beside the values; details: strain PA14
Outline: as §1

P. aeruginosa PAK = assay: microbe, parasite or virus in culture; design: MICa: MIC of the antibiotic / MICac: MIC of the antibiotic in the combination: unit not given beside the values
Outline: as §1

P. aeruginosa HM-214 = details: strain HM-214; antibiotic + D-11 (MICb/MICbc 128/4)
Outline: as §1

P. aeruginosa AUMC-Pa-1 = details: strain AUMC-Pa-1; antibiotic + D-11 (MICb/MICbc 128/4)
Outline: as §1

P. aeruginosa AUMC-Pa-2 = details: strain AUMC-Pa-2; antibiotic + D-11 (MICb/MICbc 64/4)
Outline: as §1

[1] = tested on: clinical P. aeruginosa isolates; assay: microbe, parasite or virus in culture; details: Pseudomonas aeruginosa, 18 h, antibiotic alone
Outline: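 MIC is the lowest drug concentration showing no visible growth after 18 h at 37 °C. Two-fold dilutions in MHB were combined with an equal volume of bacterial suspension (about 1 × 10^6 CFU/mL), following CLSI broth microdilution, in triplicate.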

[2] = antibiotic + D-11 (MICb/MICbc 64/4)
[3] = antibiotic alone, unit not given
[4] = with D-11 at MICbc 4, unit not given

C[C@H]1c2cccc(O)c2C(=O)C2=C(O)[C@]3(O)C(=O)C(C(N)=O)=C(O)[C@@H](N(C)C)[C@@H]3[C@@H](O)[C@@H]21 [Doxycycline]
MIC (P. aeruginosa AUMC-Pa-3; Pseudomonas aeruginosa, AUMCPA3, 18 h, read-out: MICa: MIC of the antibiotic): 16 µM | FICI (P. aeruginosa AUMC-Pa-3; strain AUMC-Pa-3, antibiotic + D-11 (MICb/MICbc 128/4)): 0.063 | MICac: MIC of the antibiotic in the combination (P. aeruginosa AUMC-Pa-3; strain AUMC-Pa-3, with D-11 at MICbc 4, unit not given): 0.5 | MIC (P. aeruginosa AUMC-Pa-4; Pseudomonas aeruginosa, AUMCPA4, 18 h, read-out: MICa: MIC of the antibiotic): 16 µM | FICI (P. aeruginosa AUMC-Pa-4; strain AUMC-Pa-4, antibiotic + D-11 (MICb/MICbc 128/4)): 0.063 | MICac: MIC of the antibiotic in the combination (P. aeruginosa AUMC-Pa-4; strain AUMC-Pa-4, with D-11 at MICbc 4, unit not given): 0.5 | FICI (P. aeruginosa AUMC-Pa-5; [2]): 0.313 | MICa: MIC of the antibiotic (P. aeruginosa AUMC-Pa-5; [3]): 8 | MICac: MIC of the antibiotic in the combination (P. aeruginosa AUMC-Pa-5; [4]): 2 | FICI (P. aeruginosa AUMC-Pa-6; [2]): 0.125 | MICa: MIC of the antibiotic (P. aeruginosa AUMC-Pa-6; [3]): 16 | MICac: MIC of the antibiotic in the combination (P. aeruginosa AUMC-Pa-6; [4]): 1 | MIC (P. aeruginosa PAO1; Pseudomonas aeruginosa, PAO1, 18 h, read-out: MICa: the MIC of antibiotics, S3 Table, antibiotic alone): 16 µM | FICI (P. aeruginosa PAO1; S3 Table, antibiotic + 2 μM D-11): 0.094 | FICI (P. aeruginosa PAO1; S3 Table, antibiotic + 4 μM D-11): 0.141 | MICac: the MIC for the antibiotic in the combination (P. aeruginosa PAO1; S3 Table, with 2 μM D-11): 0.5 µM | MICac: the MIC for the antibiotic in the combination (P. aeruginosa PAO1; S3 Table, with 4 μM D-11): 0.25 µM | MICa: the MIC of antibiotics (P. aeruginosa PAO1; S3 Table, antibiotic alone): 16 µM | MIC (P. aeruginosa ATCC27853; Pseudomonas aeruginosa, ATCC27853, 18 h, read-out: MICa: MIC of the antibiotic): 16 µM | FICI (P. aeruginosa ATCC27853; strain ATCC27853, antibiotic + D-11 (MICb/MICbc 32/4)): 0.156 | MICac: MIC of the antibiotic in the combination (P. aeruginosa ATCC27853; strain ATCC27853, with D-11 at MICbc 4, unit not given): 0.5 | MIC (P. aeruginosa NR-31040; Pseudomonas aeruginosa, NR31040, 18 h, read-out: MICa: MIC of the antibiotic): 16 µM | FICI (P. aeruginosa NR-31040; strain NR-31040, antibiotic + D-11 (MICb/MICbc 128/4)): 0.039 | MICac: MIC of the antibiotic in the combination (P. aeruginosa NR-31040; strain NR-31040, with D-11 at MICbc 4, unit not given): 0.125 | MIC (P. aeruginosa NR-31041; Pseudomonas aeruginosa, NR31041, 18 h, read-out: MICa: MIC of the antibiotic): 16 µM | FICI (P. aeruginosa NR-31041; strain NR-31041, antibiotic + D-11 (MICb/MICbc 64/4)): 0.094 | MICac: MIC of the antibiotic in the combination (P. aeruginosa NR-31041; strain NR-31041, with D-11 at MICbc 4, unit not given): 0.5 | FICI (P. aeruginosa PA14; antibiotic + D-11 (MICb/MICbc 128/4)): 0.094 | MICa: MIC of the antibiotic (P. aeruginosa PA14; [3]): 16 | MICac: MIC of the antibiotic in the combination (P. aeruginosa PA14; [4]): 1 | MIC (P. aeruginosa PAK; Pseudomonas aeruginosa, 18 h, read-out: MICa: MIC of the antibiotic): 16 µM | FICI (P. aeruginosa PAK; strain PAK, antibiotic + D-11 (MICb/MICbc 64/4)): 0.094 | MICac: MIC of the antibiotic in the combination (P. aeruginosa PAK; strain PAK, with D-11 at MICbc 4, unit not given): 0.5 | FICI (P. aeruginosa HM-214): 0.063 | FICI (P. aeruginosa AUMC-Pa-1): 0.063 | FICI (P. aeruginosa AUMC-Pa-2): 0.188 | MIC ([1]; read-out: Antibiotic sensibility (MIC) of clinical P. aeruginosa isolate AUMC-Pa-1, strain AUMC-Pa-1): 32 µM | MIC ([1]; read-out: Antibiotic sensibility (MIC) of clinical P. aeruginosa isolate AUMC-Pa-2, strain AUMC-Pa-2): 8 µM | MIC ([1]; read-out: Antibiotic sensibility (MIC) of clinical P. aeruginosa isolate AUMC-Pa-3, strain AUMC-Pa-3): 16 µM | MIC ([1]; read-out: Antibiotic sensibility (MIC) of clinical P. aeruginosa isolate AUMC-Pa-4, strain AUMC-Pa-4): 16 µM | MIC ([1]; read-out: Antibiotic sensibility (MIC) of clinical P. aeruginosa isolate AUMC-Pa-5, strain AUMC-Pa-5): 8 µM | MIC ([1]; read-out: Antibiotic sensibility (MIC) of clinical P. aeruginosa isolate AUMC-Pa-6, strain AUMC-Pa-6): 16 µM | MIC ([1]; read-out: Antibiotic sensibility (MIC) of clinical P. aeruginosa isolate HM-214, strain HM-214): 16 µM | MIC ([1]; read-out: Antibiotic sensibility (MIC) of clinical P. aeruginosa isolate NR-31040, strain NR-31040): 16 µM | MIC ([1]; read-out: Antibiotic sensibility (MIC) of clinical P. aeruginosa isolate NR-31041, strain NR-31041): 16 µM
